Data on 13 compounds can be found in patent publication US20230118577A1, “NEUROACTIVE STEROIDS AND PHARMACEUTICAL COMPOSITION CONTAINING THE SAME” (Brii Biosciences, Inc., priority 2020, published 2023).

A value given as a limit tells only on which side of the number the result lay.

The target of one test is T1, GABAA α1β2γ2 (Homo sapiens, UniProt P14867+P47870).
T1 construct: expressed in transfected cells; host or cells: HEK293 expressing the Tetracycline repressor protein
Briefly: Automated patch clamp electrophysiology (SyncroPatch), PAM mode, GABAA α1β2γ2 cell line. The following applies: PAM mode; for EC50: HEK293 cells expressing human GABAA α1β2γ2, GABA EC20 14 μM, read-out: GABAA α1β2γ2 PAM EC50; for Emax: maximum fold increase in current relative to Allopregnanolone, GABA EC20 14 μM, read-out: GABAA α1β2γ2 PAM % Emax (to Allo). Format: cell-based. The text has this: (§1) Cellular electrophysiology was used to measure the pharmacology properties of the GABA receptor modulators. The GABAA channels are expressed in stable cell lines described herein. The parental cell line used to express the human GABAA channels is the human embryonic kidney (HEK293) cell line expressing the Tetracycline repressor protein to support inducible expression of the target proteins.
(§2) For the GABAA α4β3δ cell line, the α4 and β3 subunits are under control of tetracycline inducible expression system, while the δ subunit is constitutively expressed. For the GABAA α1β2γ2 cell line, the α1 and β2 subunits are under control of tetracycline inducible expression system, whist the γ2 subunit is constitutively expressed.
(§3) Assessment of the compounds against GABAA α1β2γ2 and GABAA α4β3δ was performed using the SyncroPatch automated platform in positive allosteric modulator (PAM) mode. Six concentrations of 20 nM, 62 nM, 185 nM, 555 nM, 1667 nM and 5000 nM were tested across the plate, with a single concentration of compound per well. A minimum of 3 cells were obtained per each concentration of a compound.
(§4) Automated patch clamp-recordings were performed using the SyncroPatch 384PE. The voltage protocol generation and data collection were performed with PatchController384 V1.6.6 and Data Controller V1.6.0. A steady state voltage pulse at −80 mV was applied during the assay.
(§5) The stacked addition protocol was used, in which γ-aminobutyric acid (GABA) was rapidly applied and then washed off from the cell. To test for positive allosteric modulator activity (PAM), first the agonist GABA EC20 (EC20: 10 μM for GABAA α4β3δ channel and 14 μM GABA for the GABAA α1β2γ2 channel) was applied twice (with wash steps in-between) as a control and to show activation reproducibility, followed by a 1-2 minutes pre-incubation of the tested compound and then re-application of GABA EC20 in the presence of a testing compound. Finally, following a further wash step, maximum GABA (10 mM) was applied.
(§6) An Allopregnanolone concentration response was tested as the control PAM on the compound plates. The fold increase was generated using the following equation, (Icomp/Icontrol)−1, where Icomp is the current amplitude in the presence of the compound and Icontrol is the current amplitude in the presence of GABA EC20 alone. This builds an EC50 concentration-response curve, where 0 represents no PAM activity and >0 represents PAM activity.
(§7) A maximum % Emax for each compound is generated using the following equation, (IMaxComp/IAveMaxAllo)*100, where IMaxcomp is the individual maximum fold increase in current for each compound and IAveMaxAllo is the average maximum fold increase generated in the presence of Allopregnanolone. The resultant % Emax values are then averaged. The compound and Allopregnanolone values were obtained from separate cells which were tested in the same compound run. Two GABAA subtypes were tested against each of the compounds as well as the positive control, Allopregnanolone.
On the technique in general: In patch-clamp work, channel activity is measured electrically.

The target in another test is T2, GABAA α4β3δ (Homo sapiens, UniProt P28472+P48169).
T2 construct: expressed in transfected cells; host or cells: HEK293 expressing the Tetracycline repressor protein
Briefly: Automated patch clamp electrophysiology (SyncroPatch), PAM mode, GABAA α4β3δ cell line. Format: cell-based. The settings on record: PAM mode, GABA EC20 10 μM; for EC50: HEK293 cells expressing human GABAA α4β3δ, read-out: GABAA α4β3δ PAM EC50; for Emax: maximum fold increase in current relative to Allopregnanolone, read-out: GABAA α4β3δ PAM % Emax (to Allo).
Source text: as §1, §2, §3, §4, §5, §6, §7

T2 sequence (P48169 36-554): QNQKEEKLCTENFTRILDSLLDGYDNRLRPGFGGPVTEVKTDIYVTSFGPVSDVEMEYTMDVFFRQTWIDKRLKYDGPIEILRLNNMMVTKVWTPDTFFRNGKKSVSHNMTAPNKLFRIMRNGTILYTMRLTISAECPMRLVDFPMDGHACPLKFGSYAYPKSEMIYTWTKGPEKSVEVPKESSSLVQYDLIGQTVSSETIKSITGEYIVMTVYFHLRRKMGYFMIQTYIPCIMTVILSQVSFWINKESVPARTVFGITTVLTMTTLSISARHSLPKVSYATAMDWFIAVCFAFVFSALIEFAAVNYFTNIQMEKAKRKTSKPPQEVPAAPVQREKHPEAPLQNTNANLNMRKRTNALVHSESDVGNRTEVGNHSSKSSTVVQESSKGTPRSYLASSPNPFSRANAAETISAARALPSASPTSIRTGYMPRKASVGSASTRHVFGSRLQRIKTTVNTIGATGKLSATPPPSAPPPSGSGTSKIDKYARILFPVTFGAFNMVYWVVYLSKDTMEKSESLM
T2 sequence (P28472 26-473): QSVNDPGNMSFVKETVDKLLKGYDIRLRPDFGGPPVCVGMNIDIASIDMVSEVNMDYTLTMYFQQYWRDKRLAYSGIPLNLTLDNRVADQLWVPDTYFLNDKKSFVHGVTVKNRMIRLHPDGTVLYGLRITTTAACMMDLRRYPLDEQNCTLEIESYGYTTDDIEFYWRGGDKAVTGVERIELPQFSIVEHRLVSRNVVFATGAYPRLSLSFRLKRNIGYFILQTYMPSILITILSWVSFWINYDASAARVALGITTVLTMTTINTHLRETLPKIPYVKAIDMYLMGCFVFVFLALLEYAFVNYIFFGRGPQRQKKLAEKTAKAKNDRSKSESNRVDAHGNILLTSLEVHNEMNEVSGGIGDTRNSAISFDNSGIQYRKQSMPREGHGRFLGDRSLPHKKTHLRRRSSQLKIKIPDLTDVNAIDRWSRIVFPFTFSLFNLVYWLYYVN
T2 sequence (O14764 17-452 partner limits assumed): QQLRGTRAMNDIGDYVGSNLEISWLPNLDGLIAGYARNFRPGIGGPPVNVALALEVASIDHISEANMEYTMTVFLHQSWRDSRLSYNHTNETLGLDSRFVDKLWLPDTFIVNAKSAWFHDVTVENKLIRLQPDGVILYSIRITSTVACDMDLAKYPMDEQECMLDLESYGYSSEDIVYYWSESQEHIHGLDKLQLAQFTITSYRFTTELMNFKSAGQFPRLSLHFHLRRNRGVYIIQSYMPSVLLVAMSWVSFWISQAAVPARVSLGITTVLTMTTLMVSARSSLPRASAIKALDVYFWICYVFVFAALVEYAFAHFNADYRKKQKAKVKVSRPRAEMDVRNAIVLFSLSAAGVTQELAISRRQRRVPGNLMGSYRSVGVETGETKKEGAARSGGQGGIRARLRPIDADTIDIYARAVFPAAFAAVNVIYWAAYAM
T1 sequence (P14867 28-456): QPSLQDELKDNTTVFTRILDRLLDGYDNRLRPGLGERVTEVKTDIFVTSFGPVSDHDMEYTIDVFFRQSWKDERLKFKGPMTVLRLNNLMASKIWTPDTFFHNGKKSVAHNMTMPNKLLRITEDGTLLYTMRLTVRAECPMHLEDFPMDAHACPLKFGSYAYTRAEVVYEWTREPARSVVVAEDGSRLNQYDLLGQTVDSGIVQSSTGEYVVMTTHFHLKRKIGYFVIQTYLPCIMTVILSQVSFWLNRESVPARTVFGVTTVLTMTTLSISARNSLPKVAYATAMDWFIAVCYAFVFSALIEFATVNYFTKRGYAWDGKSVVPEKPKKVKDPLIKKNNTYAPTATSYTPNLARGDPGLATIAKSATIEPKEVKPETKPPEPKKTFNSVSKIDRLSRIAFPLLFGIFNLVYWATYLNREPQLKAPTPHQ
T1 sequence (P47870 25-512 limits assumed): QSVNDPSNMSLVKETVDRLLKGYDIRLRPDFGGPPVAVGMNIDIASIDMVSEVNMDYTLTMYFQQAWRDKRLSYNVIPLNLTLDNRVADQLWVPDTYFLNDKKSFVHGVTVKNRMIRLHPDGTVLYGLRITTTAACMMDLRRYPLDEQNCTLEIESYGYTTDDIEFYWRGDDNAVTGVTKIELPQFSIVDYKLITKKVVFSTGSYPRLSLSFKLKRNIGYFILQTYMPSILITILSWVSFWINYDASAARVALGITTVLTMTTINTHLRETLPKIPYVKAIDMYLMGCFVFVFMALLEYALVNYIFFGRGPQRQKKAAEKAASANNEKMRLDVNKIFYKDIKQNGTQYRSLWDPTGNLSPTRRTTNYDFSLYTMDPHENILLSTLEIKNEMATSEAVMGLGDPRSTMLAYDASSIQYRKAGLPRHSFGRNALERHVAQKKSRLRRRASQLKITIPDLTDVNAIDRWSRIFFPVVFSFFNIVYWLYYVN
T1 sequence (P18507 40-475 partner): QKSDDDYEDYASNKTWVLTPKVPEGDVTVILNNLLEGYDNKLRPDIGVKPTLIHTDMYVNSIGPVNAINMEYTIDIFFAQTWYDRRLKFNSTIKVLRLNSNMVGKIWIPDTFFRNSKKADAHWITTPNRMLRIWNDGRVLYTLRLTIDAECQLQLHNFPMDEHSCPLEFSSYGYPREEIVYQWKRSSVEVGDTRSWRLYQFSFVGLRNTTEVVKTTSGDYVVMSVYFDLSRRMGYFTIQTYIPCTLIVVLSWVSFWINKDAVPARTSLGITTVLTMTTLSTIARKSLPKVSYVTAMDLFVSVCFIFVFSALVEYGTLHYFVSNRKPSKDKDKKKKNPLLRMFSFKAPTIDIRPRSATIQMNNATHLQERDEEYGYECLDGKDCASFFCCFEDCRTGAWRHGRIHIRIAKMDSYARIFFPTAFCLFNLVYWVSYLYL

In general, EC50 refers to the midpoint of the concentration-response curve. One may read the Emax as the size of the effect at its maximum, as opposed to the concentration needed. `CC1([C@H]2CC[C@H]3[C@@H]4CC[C@H]5C[C@](C)(O)CC[C@]5(C)[C@H]4CC[C@]23C)COC1` [Example 1, (3R,5S,8R,9S,10S,13S,14S,17S)-3,10,13-trimethyl-17-(3-methyloxetan-3-yl)-1,2,4,5,6,7,8,9,11,12,14,15,16,17-tetradecahydrocyclopenta[a]phenanthren-3-ol]: the results for the EC50 at GABAA α1β2γ2 and at GABAA α4β3δ were 500 to 1000 nM and above 1500 nM, respectively. Also, the Emax at GABAA α1β2γ2 and at GABAA α4β3δ was below 50% in each case.

For the compound `CC1([C@H]2CC[C@H]3[C@@H]4CC[C@@H]5C[C@](C)(O)CC[C@@H]5[C@H]4CC[C@]23C)COC1` [Example 2, (3R,5R,8R,9R,10S,13S,14S,17S)-3,13-dimethyl-17-(3-methyloxetan-3-yl)-2,4,5,6,7,8,9,10,11,12,14,15,16,17-tetradecahydro-1H-cyclopenta[a]phenanthren-3-ol], at GABAA α1β2γ2, the EC50 was in the range of 1000 to 1500 nM and the Emax was above 90%. On GABAA α4β3δ, the EC50 is below 500 nM and the Emax is above 90%.

On to `CC1([C@H]2CC[C@H]3[C@@H]4CC[C@H]5C[C@H](O)CC[C@]5(C)[C@H]4CC[C@]23C)CCO1` (stereo partly drawn) [Example 3, (3R,5S,8R,9S,10S,13S,14S,17S)-10,13-dimethyl-17-(2-methyloxetan-2-yl)-2,3,4,5,6,7,8,9,11,12,14,15,16,17-tetradecahydro-1H-cyclopenta[a]phenanthren-3-ol], for which, at GABAA α1β2γ2, the EC50 fell in the range of 1000 to 1500 nM and the Emax is below 50%. Further, at GABAA α4β3δ, the EC50 was in the range of 1000 to 1500 nM and the Emax was below 50%.

Consider `CC1([C@H]2CC[C@H]3[C@@H]4CC[C@H]5C[C@H](O)CC[C@]5(C)[C@H]4CC[C@]23C)COC1` [Example 5, (3R,5S,8R,9S,10S,13S,14S,17S)-10,13-dimethyl-17-(3-methyloxetan-3-yl)-2,3,4,5,6,7,8,9,11,12,14,15,16,17-tetradecahydro-1H-cyclopenta[a]phenanthren-3-ol], for which, at GABAA α1β2γ2, the EC50 is 500 to 1000 nM and the Emax lay within 50 to 90%. In addition, at GABAA α4β3δ, the EC50 is above 1500 nM and the Emax is below 50%.

For `CC1([C@H]2CC[C@H]3[C@@H]4CC[C@@H]5C[C@H](O)CC[C@]5(C)[C@H]4CC[C@]23C)COC1` [Example 6, (3R,5R,8R,9S,10S,13S,14S,17S)-10,13-dimethyl-17-(3-methyloxetan-3-yl)-2,3,4,5,6,7,8,9,11,12,14,15,16,17-tetradecahydro-1H-cyclopenta[a]phenanthren-3-ol], on GABAA α1β2γ2, the EC50 is below 500 nM and the Emax was above 90%. Also, at GABAA α4β3δ, the EC50 lay within 1000 to 1500 nM and the Emax is above 90%.

Consider `CC1([C@H]2CC[C@H]3[C@@H]4CC[C@@H]5C[C@](C)(O)CC[C@@H]5[C@H]4CC[C@]23C)CCOC1` (stereo partly drawn) [Example 7, (3R,5R,8R,9R,10S,13S,14S,17S)-3,13-dimethyl-17-(3-methyltetrahydrofuran-3-yl)-2,4,5,6,7,8,9,10,11,12,14,15,16,17-tetradecahydro-1H-cyclopenta[a]phenanthren-3-ol], for which, at GABAA α1β2γ2, the EC50 was in the range of 500 to 1000 nM and the Emax was above 90%. For the same compound, on GABAA α4β3δ, the EC50 is 500 to 1000 nM and the Emax is above 90%.

`C[C@@]1(O)CC[C@H]2[C@H](CC[C@@H]3[C@@H]2CC[C@]2(C)[C@@H](C4(CC5CC5)COC4)CC[C@@H]32)C1` [Example 9, (3R,5R,8R,9R,10S,13S,14S,17S)-17-[3-(cyclopropylmethyl)oxetan-3-yl]-3,13-dimethyl-2,4,5,6,7,8,9,10,11,12,14,15,16,17-tetradecahydro-1H-cyclopenta[a]phenanthren-3-ol]: on GABAA α1β2γ2, the EC50 is below 500 nM and the Emax lay in the range of 50 to 90%. For the same compound, on GABAA α4β3δ, the EC50 is above 1500 nM and the Emax was above 90%.

As to `C[C@@]1(O)CC[C@H]2[C@H](CC[C@@H]3[C@@H]2CC[C@]2(C)[C@@H](C4(F)COC4)CC[C@@H]32)C1` [Example 10, (3R,5R,8R,9R,10S,13S,14S,17S)-17-(3-fluorooxetan-3-yl)-3,13-dimethyl-2,4,5,6,7,8,9,10,11,12,14,15,16,17-tetradecahydro-1H-cyclopenta[a]phenanthren-3-ol], at GABAA α1β2γ2, the EC50 was below 500 nM and the Emax is above 90%. On GABAA α4β3δ, the EC50 is below 500 nM and the Emax was above 90%.

For `C[C@@]1(O)CC[C@H]2[C@H](CC[C@@H]3[C@@H]2CC[C@]2(C)[C@@H](C4(CC#N)COC4)CC[C@@H]32)C1` [Example 13, 2-[3-[(3R,5R,8R,9R,10S,13S,14S,17S)-3-hydroxy-3,13-dimethyl-2,4,5,6,7,8,9,10,11,12,14,15,16,17-tetradecahydro-1H-cyclopenta[a]phenanthren-17-yl]oxetan-3-yl]acetonitrile], on GABAA α1β2γ2, the half-maximal effective concentration (EC50) was in the range of 1000 to 1500 nM and the Emax was above 90%. Moreover, at GABAA α4β3δ, the EC50 fell in the range of 1000 to 1500 nM and the Emax was below 50%.

Consider `C[C@@]1(O)CC[C@H]2[C@H](CC[C@@H]3[C@@H]2CC[C@]2(C)[C@@H](C4(CF)COC4)CC[C@@H]32)C1` [Example 14, (3R,5R,8R,9R,10S,13S,14S,17S)-17-[3-(fluoromethyl)oxetan-3-yl]-3,13-dimethyl-2,4,5,6,7,8,9,10,11,12,14,15,16,17-tetradecahydro-1H-cyclopenta[a]phenanthren-3-ol], for which, at GABAA α1β2γ2, the EC50 is 1000 to 1500 nM and the Emax was above 90%. Besides, at GABAA α4β3δ, the EC50 lay within 500 to 1000 nM and the maximum response (Emax) lay within 50 to 90%.

Regarding `C[C@@]1(O)CC[C@H]2[C@H](CC[C@@H]3[C@@H]2CC[C@]2(C)[C@@H](C4(Cn5cc(C#N)cn5)COC4)CC[C@@H]32)C1` [Example 15, 1-[[3-[(3R,5R,8R,9R,10S,13S,14S,17S)-3-hydroxy-3,13-dimethyl-2,4,5,6,7,8,9,10,11,12,14,15,16,17-tetradecahydro-1H-cyclopenta[a]phenanthren-17-yl]oxetan-3-yl]methyl]pyrazole-4-carbonitrile], the EC50 at GABAA α1β2γ2 was below 500 nM; at GABAA α4β3δ it was above 1500 nM. For the same compound, the Emax at GABAA α1β2γ2 and on GABAA α4β3δ was above 90% each time.

In the case of `C[C@@]1(O)CC[C@H]2[C@H](CC[C@@H]3[C@@H]2CC[C@]2(C)[C@@H](C4(C#N)COC4)CC[C@@H]32)C1` [Example 18, 3-((3R,5R,8R,9R,10S,13S,14S,17S)-3-hydroxy-3,13-dimethyl-2,4,5,6,7,8,9,10,11,12,14,15,16,17-tetradecahydro-1H-cyclopenta[a]phenanthren-17-yl)oxetane-3-carbonitrile], on GABAA α1β2γ2, the EC50 was below 500 nM and the Emax is above 90%. In addition, on GABAA α4β3δ, the EC50 was below 500 nM and the Emax is 50 to 90%.

Consider `C[C@@]1(O)CC[C@H]2[C@H](CC[C@@H]3[C@@H]2CC[C@]2(C)[C@@H](C4(C(F)F)COC4)CC[C@@H]32)C1` [Example 19, (3R,5R,8R,9R,10S,13S,14S,17S)-17-[3-(difluoromethyl)oxetan-3-yl]-3,13-dimethyl-2,4,5,6,7,8,9,10,11,12,14,15,16,17-tetradecahydro-1H-cyclopenta[a]phenanthren-3-ol], for which the EC50 at GABAA α1β2γ2 and on GABAA α4β3δ was below 500 nM throughout. Also, the Emax on GABAA α1β2γ2 and on GABAA α4β3δ was above 90% each time.
